Source: patent US20050112573A1, “Method of detecting toxic substance” (priority 2001, published 2005)

System: yeast genes (level of expressed mRNA)
Assay: DNA chip analysis of expressed mRNA of yeast genes after 2 h culture with a toxic chemical substance
Assay type: cell-based, Saccharomyces cerevisiae S288C
Outline: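 S. cerevisiae S288C grown at 25° C in YPD; toxicant added at log phase at growth-inhibitory, non-lethal levels for 2 h, untreated cells as control. Poly(A) mRNA reverse-transcribed with Cy3/Cy5-dUTP, hybridized to whole-genome chip at 65° C >12 h; value is fluorescence ratio versus untreated.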

## HgCl2 [(3)]
Yeast gene YAL053W, ratio to control without chemical
  The level of expressed mRNA in the presence of chemical substance/: 1.3
Yeast gene YAR010C
  The level of expressed mRNA in the presence of chemical substance/The level of expressed mRNA in the absence of chemical substance: 1.2
Yeast gene YBL005W-A
  The level of expressed mRNA in the presence of chemical substance/The level of expressed mRNA in the absence of chemical substance: 0.5
Yeast gene YBL041W
  The level of expressed mRNA in the presence of chemical substance/The level of expressed mRNA in the absence of chemical substance: 0.9
Yeast gene YBL043W
  The level of expressed mRNA in the presence of chemical substance/The level of expressed mRNA in the absence of chemical substance: 1.1
Yeast gene YBL048W, ratio to control without chemical substance, 2 h culture
  The level of expressed mRNA in the presence of chemical substance/: 2.3
Yeast gene YBL078C
  The level of expressed mRNA in the presence of chemical substance/The level of expressed mRNA in the absence of chemical substance: 1.3
Yeast gene YBL107C, ratio to control without chemical substance, 2 h culture
  The level of expressed mRNA in the presence of chemical substance/: 0.4
Yeast gene YBR036C
  The level of expressed mRNA in the presence of chemical substance/in the absence of chemical substance: 1.8
Yeast gene YBR214W
  The level of expressed mRNA in the presence of chemical substance/The level of expressed mRNA in the absence of chemical substance: 5.7
Yeast gene YBR298C
  The level of expressed mRNA in the presence of chemical substance/in the absence of chemical substance: 1.6
Yeast gene YCL020W
  The level of expressed mRNA in the presence of chemical substance/The level of expressed mRNA in the absence of chemical substance: 0.5
Yeast gene YCL027W
  The level of expressed mRNA in the presence of chemical substance/The level of expressed mRNA in the absence of chemical substance: 1.0
Yeast gene YCR004C
  The level of expressed mRNA in the presence of chemical substance/The level of expressed mRNA in the absence of chemical substance: 12.0
Yeast gene YCR071C
  The level of expressed mRNA in the presence of chemical substance/The level of expressed mRNA in the absence of chemical substance: 0.9
Yeast gene YCR088W
  The level of expressed mRNA in the presence of chemical substance/The level of expressed mRNA in the absence of chemical substance: 1.2
Yeast gene YDL008W
  The level of expressed mRNA in the presence of chemical substance/The level of expressed mRNA in the absence of chemical substance: 1.0
Yeast gene YDL072C, ratio to control without chemical
  The level of expressed mRNA in the presence of chemical substance/: 3.5
Yeast gene YDL078C
  The level of expressed mRNA in the presence of chemical substance/in the absence of chemical substance: 1.2
Yeast gene YDL204W, ratio to control without chemical
  The level of expressed mRNA in the presence of chemical substance/: 4.8
Yeast gene YDL215C
  The level of expressed mRNA in the presence of chemical substance/in the absence of chemical substance: 1.0
Yeast gene YDL222C, ratio to control without chemical
  The level of expressed mRNA in the presence of chemical substance/: 1.5
Yeast gene YDL238C
  The level of expressed mRNA in the presence of chemical substance/The level of expressed mRNA in the absence of chemical substance: 1.1
Yeast gene YDR055W
  The level of expressed mRNA in the presence of chemical substance/The level of expressed mRNA in the absence of chemical substance: 2.2
Yeast gene YDR084C
  The level of expressed mRNA in the presence of chemical substance/The level of expressed mRNA in the absence of chemical substance: 1.5
Yeast gene YDR085C
  The level of expressed mRNA in the presence of chemical substance/The level of expressed mRNA in the absence of chemical substance: 1.6
Yeast gene YDR104C
  The level of expressed mRNA in the presence of chemical substance/The level of expressed mRNA in the absence of chemical substance: 1.2
Yeast gene YDR115W
  The level of expressed mRNA in the presence of chemical substance/The level of expressed mRNA in the absence of chemical substance: 0.6
Yeast gene YDR259C
  The level of expressed mRNA in the presence of chemical substance/The level of expressed mRNA in the absence of chemical substance: 0.4
Yeast gene YDR297W
  The level of expressed mRNA in the presence of chemical substance/in the absence of chemical substance: 0.8
Yeast gene YDR315C
  The level of expressed mRNA in the presence of chemical substance/The level of expressed mRNA in the absence of chemical substance: 1.0
Yeast gene YDR330W, ratio to control without chemical substance, 2 h culture
  The level of expressed mRNA in the presence of chemical substance/: 1.2
Yeast gene YDR358W
  The level of expressed mRNA in the presence of chemical substance/The level of expressed mRNA in the absence of chemical substance: 0.7
Yeast gene YDR387C
  The level of expressed mRNA in the presence of chemical substance/in the absence of chemical substance: 1.2
Yeast gene YDR388W
  The level of expressed mRNA in the presence of chemical substance/The level of expressed mRNA in the absence of chemical substance: 1.2
Yeast gene YDR411C, ratio to control without chemical substance, 2 h culture
  The level of expressed mRNA in the presence of chemical substance/: 1.8
Yeast gene YDR432W
  The level of expressed mRNA in the presence of chemical substance/The level of expressed mRNA in the absence of chemical substance: 1.0
Yeast gene YDR481C
  The level of expressed mRNA in the presence of chemical substance/The level of expressed mRNA in the absence of chemical substance: 1.3
Yeast gene YDR510W
  The level of expressed mRNA in the presence of chemical substance/The level of expressed mRNA in the absence of chemical substance: 1.5
Yeast gene YDR511W, ratio to control without chemical substance, 2 h culture
  The level of expressed mRNA in the presence of chemical substance/: 0.9
Yeast gene YDR545W, ratio to control without chemical substance, 2 h culture
  The level of expressed mRNA in the presence of chemical substance/: 0.6
Yeast gene YEL001C, ratio to control without chemical
  The level of expressed mRNA in the presence of chemical substance/: 1.4
Yeast gene YEL042W
  The level of expressed mRNA in the presence of chemical substance/The level of expressed mRNA in the absence of chemical substance: 1.7
Yeast gene YEL066W
  The level of expressed mRNA in the presence of chemical substance/The level of expressed mRNA in the absence of chemical substance: 1.5
Yeast gene YER004W, ratio to control without chemical substance, 2 h culture
  The level of expressed mRNA in the presence of chemical substance/: 1.9
Yeast gene YER035W, ratio to control without chemical substance, 2 h culture
  The level of expressed mRNA in the presence of chemical substance/: 1.6
Yeast gene YER039C
  The level of expressed mRNA in the presence of chemical substance/The level of expressed mRNA in the absence of chemical substance: 1.0
Yeast gene YER079W, ratio to control without chemical substance, 2 h culture
  The level of expressed mRNA in the presence of chemical substance/: 1.9
Yeast gene YER106W, ratio to control without chemical
  The level of expressed mRNA in the presence of chemical substance/: 1.3
Yeast gene YER107C
  The level of expressed mRNA in the presence of chemical substance/The level of expressed mRNA in the absence of chemical substance: 1.0
Yeast gene YER130C
  The level of expressed mRNA in the presence of chemical substance/The level of expressed mRNA in the absence of chemical substance: 0.5
Yeast gene YER158C, ratio to control without chemical substance, 2 h culture
  The level of expressed mRNA in the presence of chemical substance/: 0.9
Yeast gene YER163C, ratio to control without chemical substance, 2 h culture
  The level of expressed mRNA in the presence of chemical substance/: 1.2
Yeast gene YER175C, ratio to control without chemical substance, 2 h culture
  The level of expressed mRNA in the presence of chemical substance/: 1.3
Yeast gene YFL006W, ratio to control without chemical substance, 2 h culture
  The level of expressed mRNA in the presence of chemical substance/: 1.6
